Reference: patent US20230097866A1, “BACTERIAL TOPOISOMERASE INHIBITORS DERIVED FROM ISOMANNIDE” (Ohio State Innovation Foundation, priority 2020, published 2023)
Converted amounts (≈) assume the structure as drawn. Like-named read-outs stand apart in the source and are kept apart here.

Columns and labels:
S. aureus ATCC 29213 [1] = assay: MIC, CLSI broth microdilution, S. aureus ATCC 29213; format: cell-based; details: Staphylococcus aureus
[2] = tested on: S. aureus strain isolated from a cystic fibrosis patient; assay: MIC, CLSI broth microdilution, CF isolate; format: cell-based; details: Staphylococcus aureus, read-out: MIC CF isolate
TopoIV from S. aureus = TopoIV from S. aureus (Staphylococcus aureus, UniProt P0C1U9); assay: biochemical; format: biochemical
S. aureus DNA gyrase = S. aureus DNA gyrase (Staphylococcus aureus, UniProt P20831); assay: Inhibition of DNA gyrase, biochemical assay (Inspiralis)
USA300 isolate of MRSA = assay: MIC, CLSI broth microdilution, USA300 MRSA; format: cell-based; details: Staphylococcus aureus, read-out: MIC USA300
S. aureus ATCC 29213 [3] = format: cell-based, Staphylococcus aureus
S. aureus ATCC 29213 [4] = assay: microbe, parasite or virus in culture; format: cell-based; details: Staphylococcus aureus, ATCC29213, read-out: S. aureus ATCC 29213 MIC (n = 2)
Experimental: In order to determine the spontaneous mutation frequency of investigational agents (Table 4), the MIC was first determined using the agar dilution method as recommended by the Clinical and Laboratory Standards Institute.
Triplicate independent inocula of S. aureus ATCC 29213 were evaluated.

hERG = hERG (Homo sapiens, UniProt Q12809); assay: hERG IC50, IonWorks Barracuda (Charles River); details: 24 versus cyclohexane-linked 31 and 32
Excerpt: The design of these isomannide-detived NBTIs focused on enhanced polarity and modulation of basicity through the two electronegative oxygen atoms in the linker.

[5] = ATCC29213, read-out: MIC ATCC 29213
[6] = ATCC29213, CLSI broth microdilution, triplicate, read-out: MIC ATCC 29213
[7] = CLSI broth microdilution, ciprofloxacin-resistant MRSA

Chain of TopoIV from S. aureus (P0C1S7 whole entry): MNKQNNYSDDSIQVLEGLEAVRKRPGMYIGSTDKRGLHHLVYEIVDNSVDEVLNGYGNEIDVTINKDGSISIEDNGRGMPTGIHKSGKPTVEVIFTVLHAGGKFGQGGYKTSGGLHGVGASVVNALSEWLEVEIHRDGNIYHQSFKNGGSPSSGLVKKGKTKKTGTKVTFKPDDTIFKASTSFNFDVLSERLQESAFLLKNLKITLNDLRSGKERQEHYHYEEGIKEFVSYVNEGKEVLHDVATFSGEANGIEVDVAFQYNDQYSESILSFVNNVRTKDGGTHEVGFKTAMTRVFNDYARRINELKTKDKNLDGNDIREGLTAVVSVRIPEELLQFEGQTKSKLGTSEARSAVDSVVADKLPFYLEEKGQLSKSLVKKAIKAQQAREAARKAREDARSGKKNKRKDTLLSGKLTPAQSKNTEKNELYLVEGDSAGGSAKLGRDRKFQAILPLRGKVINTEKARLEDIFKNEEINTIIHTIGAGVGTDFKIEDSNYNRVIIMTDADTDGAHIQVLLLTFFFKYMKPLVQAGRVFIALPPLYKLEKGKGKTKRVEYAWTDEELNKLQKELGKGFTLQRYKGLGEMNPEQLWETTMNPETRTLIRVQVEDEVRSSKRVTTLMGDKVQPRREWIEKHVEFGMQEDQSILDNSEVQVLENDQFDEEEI
Chain of TopoIV from S. aureus (P0C1U9 whole entry): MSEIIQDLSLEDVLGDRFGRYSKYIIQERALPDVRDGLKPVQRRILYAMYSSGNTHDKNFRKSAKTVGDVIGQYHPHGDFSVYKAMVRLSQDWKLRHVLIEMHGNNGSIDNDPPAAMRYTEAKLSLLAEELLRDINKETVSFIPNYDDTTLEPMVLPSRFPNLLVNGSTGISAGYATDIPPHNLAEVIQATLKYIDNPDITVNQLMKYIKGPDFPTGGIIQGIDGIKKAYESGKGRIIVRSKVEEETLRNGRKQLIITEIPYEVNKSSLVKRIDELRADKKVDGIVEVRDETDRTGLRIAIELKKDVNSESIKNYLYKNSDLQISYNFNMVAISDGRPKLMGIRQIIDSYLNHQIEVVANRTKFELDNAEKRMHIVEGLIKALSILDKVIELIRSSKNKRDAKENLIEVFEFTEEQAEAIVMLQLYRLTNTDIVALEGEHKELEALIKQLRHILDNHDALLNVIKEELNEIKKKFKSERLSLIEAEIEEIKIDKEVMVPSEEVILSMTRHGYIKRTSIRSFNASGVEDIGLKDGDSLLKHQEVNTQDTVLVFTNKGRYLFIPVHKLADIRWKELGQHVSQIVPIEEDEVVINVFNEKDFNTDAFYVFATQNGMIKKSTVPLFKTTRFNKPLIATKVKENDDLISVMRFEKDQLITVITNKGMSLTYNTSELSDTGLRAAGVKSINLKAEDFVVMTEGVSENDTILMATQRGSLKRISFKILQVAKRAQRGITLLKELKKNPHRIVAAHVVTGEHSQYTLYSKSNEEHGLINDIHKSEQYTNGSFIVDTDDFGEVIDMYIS
Chain of S. aureus DNA gyrase (P0A0K8 whole entry): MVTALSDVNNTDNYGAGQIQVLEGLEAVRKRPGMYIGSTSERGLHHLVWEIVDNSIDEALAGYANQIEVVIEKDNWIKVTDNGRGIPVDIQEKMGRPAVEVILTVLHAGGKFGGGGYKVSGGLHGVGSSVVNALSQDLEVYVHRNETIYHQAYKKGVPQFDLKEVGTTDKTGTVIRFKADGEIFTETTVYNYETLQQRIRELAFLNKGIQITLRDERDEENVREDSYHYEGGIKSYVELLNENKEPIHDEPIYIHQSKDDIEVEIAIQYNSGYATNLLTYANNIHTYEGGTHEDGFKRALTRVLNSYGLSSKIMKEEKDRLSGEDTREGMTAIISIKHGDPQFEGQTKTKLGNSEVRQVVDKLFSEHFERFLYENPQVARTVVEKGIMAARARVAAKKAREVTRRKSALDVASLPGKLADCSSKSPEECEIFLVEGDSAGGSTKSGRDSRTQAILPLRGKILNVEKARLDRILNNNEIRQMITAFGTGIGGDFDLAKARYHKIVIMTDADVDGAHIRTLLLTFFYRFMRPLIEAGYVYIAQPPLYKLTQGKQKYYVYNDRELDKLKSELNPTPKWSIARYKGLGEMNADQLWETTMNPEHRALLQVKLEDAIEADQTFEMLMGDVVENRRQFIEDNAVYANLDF
Chain of S. aureus DNA gyrase (P20831 whole entry): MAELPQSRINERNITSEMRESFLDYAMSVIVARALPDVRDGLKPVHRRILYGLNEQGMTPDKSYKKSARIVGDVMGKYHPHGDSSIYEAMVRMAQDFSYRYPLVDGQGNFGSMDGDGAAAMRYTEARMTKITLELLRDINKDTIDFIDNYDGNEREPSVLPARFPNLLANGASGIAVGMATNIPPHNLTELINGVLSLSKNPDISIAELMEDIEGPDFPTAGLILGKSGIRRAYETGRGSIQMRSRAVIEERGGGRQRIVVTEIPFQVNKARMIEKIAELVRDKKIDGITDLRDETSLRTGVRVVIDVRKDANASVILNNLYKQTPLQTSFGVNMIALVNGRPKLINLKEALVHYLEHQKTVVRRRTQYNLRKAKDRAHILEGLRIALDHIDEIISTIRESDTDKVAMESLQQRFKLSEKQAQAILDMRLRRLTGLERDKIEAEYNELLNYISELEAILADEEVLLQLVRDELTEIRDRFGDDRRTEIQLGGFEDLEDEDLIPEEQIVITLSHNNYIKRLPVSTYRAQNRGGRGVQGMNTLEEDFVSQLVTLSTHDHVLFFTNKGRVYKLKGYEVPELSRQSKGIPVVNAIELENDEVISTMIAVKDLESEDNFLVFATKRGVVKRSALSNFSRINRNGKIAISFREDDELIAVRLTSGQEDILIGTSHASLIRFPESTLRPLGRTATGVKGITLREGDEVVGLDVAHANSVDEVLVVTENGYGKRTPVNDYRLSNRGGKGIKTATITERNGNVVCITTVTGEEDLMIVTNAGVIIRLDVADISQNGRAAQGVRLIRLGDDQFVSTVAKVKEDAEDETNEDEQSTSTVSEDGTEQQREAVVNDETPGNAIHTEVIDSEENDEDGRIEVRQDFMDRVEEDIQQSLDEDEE
Chain of hERG (Q12809 whole entry): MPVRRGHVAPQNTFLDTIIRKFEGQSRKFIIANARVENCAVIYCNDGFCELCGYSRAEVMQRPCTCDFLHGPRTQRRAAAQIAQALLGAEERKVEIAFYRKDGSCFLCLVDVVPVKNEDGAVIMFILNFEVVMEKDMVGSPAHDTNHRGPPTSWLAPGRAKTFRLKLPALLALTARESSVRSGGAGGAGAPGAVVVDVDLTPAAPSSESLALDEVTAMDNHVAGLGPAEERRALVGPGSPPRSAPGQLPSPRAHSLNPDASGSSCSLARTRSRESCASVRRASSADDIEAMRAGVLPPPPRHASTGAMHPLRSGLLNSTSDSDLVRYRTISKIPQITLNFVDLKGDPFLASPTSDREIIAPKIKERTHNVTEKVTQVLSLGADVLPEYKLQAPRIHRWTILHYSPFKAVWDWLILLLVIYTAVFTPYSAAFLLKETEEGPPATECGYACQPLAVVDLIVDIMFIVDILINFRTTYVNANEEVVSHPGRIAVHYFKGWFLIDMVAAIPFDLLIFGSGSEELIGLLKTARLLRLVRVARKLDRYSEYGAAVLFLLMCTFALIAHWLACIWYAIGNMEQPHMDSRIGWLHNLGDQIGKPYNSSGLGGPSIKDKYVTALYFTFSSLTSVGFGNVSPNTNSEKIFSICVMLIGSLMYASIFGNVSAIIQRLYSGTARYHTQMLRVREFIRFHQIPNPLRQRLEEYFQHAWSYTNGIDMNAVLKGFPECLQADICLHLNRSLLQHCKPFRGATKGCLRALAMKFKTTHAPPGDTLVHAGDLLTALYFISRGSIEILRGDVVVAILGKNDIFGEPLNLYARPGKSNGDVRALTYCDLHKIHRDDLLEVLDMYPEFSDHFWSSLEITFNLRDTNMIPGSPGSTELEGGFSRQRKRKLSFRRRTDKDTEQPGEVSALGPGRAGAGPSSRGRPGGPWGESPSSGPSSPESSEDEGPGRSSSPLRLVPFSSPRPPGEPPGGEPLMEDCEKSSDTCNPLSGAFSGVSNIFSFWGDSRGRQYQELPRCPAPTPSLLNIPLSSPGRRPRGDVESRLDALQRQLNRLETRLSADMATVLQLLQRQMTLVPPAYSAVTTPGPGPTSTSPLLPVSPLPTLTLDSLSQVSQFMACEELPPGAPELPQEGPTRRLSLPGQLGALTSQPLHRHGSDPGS

Structure (SMILES)	MIC (S. aureus ATCC 29213 [1]; [5])	MIC [2]	IC50 (S. aureus DNA gyrase)	MIC (USA300 isolate of MRSA)	MIC (S. aureus ATCC 29213 [1]; [6])	MIC ([2]; CLSI broth microdilution)	MIC (USA300 isolate of MRSA; [7])	further results
COc1ccc2ncc(F)c(CC[C@@]3(O)CO[C@@H]4[C@@H](NCc5ccc6c(n5)NC(=O)CO6)CO[C@@H]43)c2n1 [Compound 7, 6-((((3S,3aR,6R,6aS)-6-(2-(3-fluoro-6-methoxy-1,5-tnaphthyriditn-4-yl)ethyl)-6-hydroxyhexahydrofuro[3,2-b]furan-3-yl)amino)methyl)-2H-pyrido[3,2-b][1,4]oxazin-3(4H)-one]	2 µg/mL (≈ 3.91 µM)	2 µg/mL (≈ 3.91 µM)	540 nM	1 to 2 µg/mL (≈ 1.95 to 3.91 µM)				TopoIV IC50 (TopoIV from S. aureus): No activity
COc1ccc2nccc(CC[C@@]3(O)CO[C@@H]4[C@@H](NCc5ccc6c(c5)OCCO6)CO[C@@H]43)c2c1 [Compound 21, (3R,3aS,6S, 6aR)-6-(((2,3-dihydrobenzo[b][1,4]dioxin-6-yl)methyl)amino)-3-(2-(6-methoxyquinalin-4-yl)ethyl)hexahydrofuro[3,2-b]furan-3-ol]					16 to 32 µg/mL (≈ 33.4 to 66.9 µM)	16 µg/mL (≈ 33.4 µM)	16 µg/mL (≈ 33.4 µM)	
COc1ccc2nccc(CC[C@@]3(O)CO[C@@H]4[C@@H](NCc5ccccc5)CO[C@@H]43)c2c1 [Compound 22, (3R,3aS,6S,6aR)-6-(benzylamino)-3-(2-(6-methoxyquinolin-4-yl)ethyl)hexahydrofuro[3,2-b]furan-3-ol]					> 8 µg/mL	> 8 µg/mL	> 8 µg/mL	
COc1ccc2nccc(CC[C@@]3(O)CO[C@@H]4[C@@H](NCc5ccc(C)cc5)CO[C@@H]43)c2c1 [Compound 23, (3R,3aS,6S,6aR)-3-(2-(6-methoxyquinolin-4-yl)ethyl)-6-((4-methylbenzyl)amino)hexahydrofuro[3,2-h]furan-3-ol]					> 8 µg/mL	> 8 µg/mL	> 8 µg/mL	
COc1ccc2ncc(F)c(CC[C@@]3(O)CO[C@@H]4[C@@H](NCc5ccc6c(c5)OCCO6)CO[C@@H]43)c2n1 [Compound 24, (3R,3aS,6S, 6aR)-6-(((2,3-dihydrobenzo[b][1,4]dioxin-6-yl)methyl)amino)-3-(2-(3-fluoro-6-methoxy-1,5-naphthyridin-4-yl)ethyl)hexahydrofuro[3,2-b]furan-3-ol]	0.5 to 1 µg/mL (≈ 1 to 2.01 µM)	1 µg/mL (≈ 2.01 µM)	200 nM	1 µg/mL (≈ 2.01 µM)				Spontaneous mutation frequency (8X MIC) (S. aureus ATCC 29213 [3]): 1.35 × 10^−9 (mean, n = 2); Spontaneous mutation frequency (16X MIC) (S. aureus ATCC 29213 [3]): 4.49 × 10^−10 (mean, n = 2); MIC (S. aureus ATCC 29213 [4]): 0.5 µg/mL (≈ 1 µM); IC50 (TopoIV from S. aureus): 2600 nM; TopoIV/gyrase IC50 ratio (TopoIV from S. aureus): 13; improvement of TopoIV/gyrase IC50 ratio as compared to dioxane 27 (TopoIV from S. aureus): ~2 fold; hERG IC50 higher than 31 and 32 (hERG): > 8 fold
